The text below walks through data of patent US20240398757A1 (COCRYSTAL PHARMA, INC., priority 2022, published 2024).

This test has as its target T1, SARS2 protease (Severe acute respiratory syndrome coronavirus 2, UniProt P0DTD1).
T1 construct: SARS2 protease was added to a final concentration of 30 nM
As to the kind of experiment: SARS-CoV-2 protease inhibition assay (SARS2 FRET protease assay). The format is biochemical. Particulars: IC50 (μM), SARS2 protease 30 nM, peptide substrate 1.3 μM, 120 minutes at 37° C., compounds 20 μM to 0.075 nM.
`CCCC[C@H](NC(=O)OC(c1ccncc1)C(F)(F)c1cccc(Cl)c1)C(=O)N[C@@H](C[C@@H]1CCNC1=O)C(=O)C(=O)NC1CC1` (stereo partly drawn) [Compound A257, 2-(3-Chlorophenyl)-2,2-difluoro-1-(pyridin-4-yl)ethyl ((S)-1-(((S)-4-(cyclopropylamino)-3,4-dioxo-1-((S)-2-oxopyrrolidin-3-yl)butan-2-yl)amino)-1-oxohexan-2-yl)carbamate] yielded a concentration for half-maximal inhibition (IC50) of 0.1 nM. To `CCCC[C@H](NC(=O)CC(O)(Cc1cccc(Cl)c1)c1ccccc1)C(=O)N[C@@H](C[C@@H]1CCNC1=O)C(=O)C(=O)NCC` (stereo partly drawn) [Compound A259, (2S)-2-(4-(3-chlorophenyl)-3-hydroxy-3-phenylbutanamido)-N—((S)-4-(ethylamino)-3,4-dioxo-1-((S)-2-oxopyrrolidin-3-yl)butan-2-yl)hexanamide] belongs 413 nM; to `CCCC[C@H](NC(=O)CC(O)(c1ccccc1)C(C)(C)c1cccc(Cl)c1)C(=O)N[C@H](C=O)C[C@@H]1CCNC1=O` (stereo partly drawn) [Compound A260, (2S)-2-(4-(3-chlorophenyl)-3-hydroxy-4-methyl-3-phenylpentanamido)-N—((S)-1-oxo-3-((S)-2-oxopyrrolidin-3-yl)propan-2-yl)hexanamide], 2 nM. To `CCCC[C@H](NC(=O)CC(O)(c1ccccc1)C(C)(C)c1cccc(Cl)c1)C(=O)N[C@@H](C[C@@H]1CCNC1=O)C(=O)C(=O)NCC` (stereo partly drawn) [Compound A261, (2S)-2-(4-(3-chlorophenyl)-3-hydroxy-4-methyl-3-phenylpentanamido)-N—((S)-4-(ethylamino)-3,4-dioxo-1-((S)-2-oxopyrrolidin-3-yl)butan-2-yl)hexanamide] belongs 1090 nM; to `O=C[C@H](C[C@@H]1CCNC1=O)NC(=O)[C@H](Cc1ccc(Cl)cc1)NC(=O)OC(c1ccccc1)C(F)(F)c1cccc(Cl)c1` (stereo partly drawn) [Compound A262, 2-(3-chlorophenyl)-2,2-difluoro-1-phenylethyl ((S)-3-(4-chlorophenyl)-1-oxo-1-(((S)-1-oxo-3-((S)-2-oxopyrrolidin-3-yl)propan-2-yl)amino)propan-2-yl)carbamate], 203 nM.

With `CCNC(=O)C(=O)[C@H](C[C@@H]1CCNC1=O)NC(=O)[C@H](Cc1ccc(Cl)cc1)NC(=O)OC(c1ccccc1)C(F)(F)c1cccc(Cl)c1` (stereo partly drawn) [Compound A263, 2-(3-chlorophenyl)-2,2-difluoro-1-phenylethyl ((S)-3-(4-chlorophenyl)-1-(((S)-4-(ethylamino)-3,4-dioxo-1-((S)-2-oxopyrrolidin-3-yl)butan-2-yl)amino)-1-oxopropan-2-yl)carbamate], the IC50 was found to be 7020 nM. `CC(C)C(OC(=O)N[C@@H](Cc1ccccc1)C(=O)N[C@H](C=O)C[C@@H]1CCNC1=O)C(F)(F)c1cccc(Cl)c1` (stereo partly drawn) [Compound A266, 1-(3-Chlorophenyl)-1,1-difluoro-3-methylbutan-2-yl ((S)-1-oxo-1-(((S)-1-oxo-3-((S)-2-oxopyrrolidin-3-yl)propan-2-yl)amino)-3-phenylpropan-2-yl)carbamate] showed an IC50 of 0.1 nM. With `CCCC[C@H](NC(=O)O[C@@H](c1cccnc1)C(F)(F)c1cccc(Cl)c1)C(=O)N[C@H](C=O)C[C@@H]1CCNC1=O` [Compound A267, (S)-2-(3-chlorophenyl)-2,2-difluoro-1-(pyridin-3-yl)ethyl ((S)-1-oxo-1-(((S)-1-oxo-3-((S)-2-oxopyrrolidin-3-yl)propan-2-yl)amino)hexan-2-yl)carbamate] the figure was 9 nM; with `CCCC[C@H](NC(=O)O[C@H](c1cccnc1)C(F)(F)c1cccc(Cl)c1)C(=O)N[C@H](C=O)C[C@@H]1CCNC1=O` [Compound A268, (R)-2-(3-chlorophenyl)-2,2-difluoro-1-(pyridin-3-yl)ethyl ((S)-1-oxo-1-(((S)-1-oxo-3-((S)-2-oxopyrrolidin-3-yl)propan-2-yl)amino)hexan-2-yl)carbamate], 0.08 nM. With `CCCC[C@H](NC(=O)OC(c1ccccc1)C(F)(F)c1cccc(Cl)c1)C(=O)N[C@@H](C[C@@H]1CCNC1=O)C(=O)c1nc2ccccc2o1` (stereo partly drawn) [Compound A269, 2-(3-chlorophenyl)-2,2-difluoro-1-phenylethyl ((S)-1-(((S)-1-(benzo[d]oxazol-2-yl)-1-oxo-3-((S)-2-oxopyrrolidin-3-yl)propan-2-yl)amino)-1-oxohexan-2-yl)carbamate] the figure was 418 nM; with `CCCC[C@H](NC(=O)OC(c1ccccc1)C(F)(F)c1cccc(Cl)c1)C(=O)N[C@@H](C[C@@H]1CCNC1=O)C(=O)C(=O)NCCN(CC)CC` (stereo partly drawn) [Compound A271], 936 nM; with `CC(C)C[C@H](NC(=O)O[C@@H](C(C)C)C(F)(F)c1cccc(-c2ccccc2)c1)C(=O)N[C@H](C=O)C[C@@H]1CCNC1=O` [Compound A272, (S)-1-([1,1′-biphenyl]-3-yl)-1,1-difluoro-3-methylbutan-2-yl ((S)-4-methyl-1-oxo-1-(((S)-1-oxo-3-((S)-2-oxopyrrolidin-3-yl)propan-2-yl)amino)pentan-2-yl)carbamate], 1 nM. With `CC(C)C[C@H](NC(=O)O[C@@H](c1ccccc1)C(F)(F)c1cccc(C(C)C)c1)C(=O)N[C@H](C=O)C[C@@H]1CCNC1=O` [Compound A275, (S)-2,2-difluoro-2-(3-isopropylphenyl)-1-phenylethyl ((S)-4-methyl-1-oxo-1-(((S)-1-oxo-3-((S)-2-oxopyrrolidin-3-yl)propan-2-yl)amino)pentan-2-yl)carbamate] the figure was 1 nM; with `CCNC(=O)C(=O)[C@H](C[C@@H]1CCNC1=O)NC(=O)[C@H](Cc1ccccc1)NC(=O)OCCCc1ccccc1` [Compound A276, 3-Phenylpropyl ((S)-1-(((S)-4-(ethylamino)-3,4-dioxo-1-((S)-2-oxopyrrolidin-3-yl)butan-2-yl)amino)-1-oxo-3-phenylpropan-2-yl) carbamate], 4150 nM; with `O=C[C@H](C[C@@H]1CCNC1=O)NC(=O)[C@H](Cc1ccccc1)NC(=O)OCCCc1ccccc1` [Compound A277, 3-Phenylpropyl ((S)-1-oxo-1-(((S)-1-oxo-3-((S)-2-oxopyrrolidin-3-yl)propan-2-yl)amino)-3-phenylpropan-2-yl) carbamate], 218 nM. The compound `O=C(N[C@@H](CC1CCCCC1)C(=O)N[C@@H](C[C@@H]1CCNC1=O)C(=O)c1nc2ccccc2o1)OC(c1ccccc1)C(F)(F)c1cccc(Cl)c1` (stereo partly drawn) [Compound A278, 2-(3-chlorophenyl)-2,2-difluoro-1-phenylethyl ((S)-1-(((S)-1-(benzo[d]oxazol-2-yl)-1-oxo-3-((S)-2-oxopyrrolidin-3-yl)propan-2-yl)amino)-3-cyclohexyl-1-oxopropan-2-yl)carbamate] had a half-maximal inhibitory concentration (IC50) of 249 nM. With `CC(C)(c1cccc(Cl)c1)C(OC(=O)N[C@@H](Cc1ccc(Cl)c(Cl)c1)C(=O)N[C@H](C=O)C[C@@H]1CCNC1=O)c1ccccc1` (stereo partly drawn) [Compound A279, 2-(3-chlorophenyl)-2-methyl-1-phenylpropyl ((S)-3-(3,4-dichlorophenyl)-1-oxo-1-(((S)-1-oxo-3-((S)-2-oxopyrrolidin-3-yl)propan-2-yl)amino)propan-2-yl)carbamate] the figure was 423 nM; with `CCNC(=O)C(=O)[C@H](C[C@@H]1CCNC1=O)NC(=O)[C@H](Cc1ccc(Cl)c(Cl)c1)NC(=O)OC(c1ccccc1)C(C)(C)c1cccc(Cl)c1` (stereo partly drawn) [Compound A280, 2-(3-chlorophenyl)-2-methyl-1-phenylpropyl ((S)-3-(3,4-dichlorophenyl)-1-(((S)-4-(ethylamino)-3,4-dioxo-1-((S)-2-oxopyrrolidin-3-yl)butan-2-yl)amino)-1-oxopropan-2-yl)carbamate], 4500 nM; with `CCC1(C[C@H](NC(=O)OC(c2ccccc2)C(F)(F)c2cccc(Cl)c2)C(=O)N[C@@H](C[C@@H]2CCNC2=O)C(=O)C(=O)NC2CC2)CC1` (stereo partly drawn) [Compound A281, 2-(3-chlorophenyl)-2,2-difluoro-1-phenylethyl ((S)-1-(((S)-4-(cyclopropylamino)-3,4-dioxo-1-((S)-2-oxopyrrolidin-3-yl)butan-2-yl)amino)-3-(1-ethylcyclopropyl)-1-oxopropan-2-yl)carbamate], 1 nM. To `CC(C)C[C@H](NC(=O)O[C@@H](c1ccccc1)C(F)(F)c1cccc(Cl)c1)C(=O)N[C@@H](C[C@@H]1CCNC1=O)C(=O)C(N)=O` [Compound A282, (S)-2-(3-chlorophenyl)-2,2-difluoro-1-phenylethyl ((S)-1-(((S)-4-amino-3,4-dioxo-1-((S)-2-oxopyrrolidin-3-yl)butan-2-yl)amino)-4-methyl-1-oxopentan-2-yl)carbamate] belongs 1 nM.

In turn, `CCCC[C@H](NC(=O)O[C@@H](c1ccccc1)C(F)(F)c1cccc(F)c1)C(=O)N[C@@H](C[C@@H]1CCNC1=O)C(=O)C(=O)NCC` [Compound A283, (S)-2,2-difluoro-2-(3-fluorophenyl)-1-phenylethyl ((S)-1-(((S)-4-(ethylamino)-3,4-dioxo-1-((S)-2-oxopyrrolidin-3-yl)butan-2-yl)amino)-1-oxohexan-2-yl)carbamate] returned an IC50 of 122 nM. To `CCCC[C@H](NC(=O)O[C@H](c1ccccc1)C(F)(F)c1cccc(F)c1)C(=O)N[C@@H](C[C@@H]1CCNC1=O)C(=O)C(=O)NCC` [Compound A284, (R)-2,2-difluoro-2-(3-fluorophenyl)-1-phenylethyl ((S)-1-(((S)-4-(ethylamino)-3,4-dioxo-1-((S)-2-oxopyrrolidin-3-yl)butan-2-yl)amino)-1-oxohexan-2-yl)carbamate] belongs 8 nM. To `CCCC[C@H](NC(=O)OC(c1ccccc1)C(F)(F)c1cccc(Cl)c1)C(=O)N[C@@H](Cc1ccc[nH]c1=O)C(=O)C(=O)NC1CC1` (stereo partly drawn) [Compound A285, 2-(3-chlorophenyl)-2,2-difluoro-1-phenylethyl ((S)-1-(((S)-4-(cyclopropylamino)-3,4-dioxo-1-(2-oxo-1,2-dihydropyridin-3-yl)butan-2-yl)amino)-1-oxohexan-2-yl)carbamate] belongs 1300 nM. Turning to `O=C[C@H](C[C@@H]1CCNC1=O)NC(=O)[C@H](Cc1cccc(Cl)c1)NC(=O)OC(c1ccccc1)C(F)(F)c1cccc(Cl)c1` (stereo partly drawn) [Compound A286], the IC50 turned out to be 0.1 nM.

For orientation: IC50 means the concentration that gives 50% inhibition. Read a high IC50 as weaker potency in that assay.
